# Source: patent US7291492B2, “Histone deacetylase 9” (The Institute of Cancer Research, priority 2001, dated 2007)
# Test system: GAL4 DBD-HDAC9 fusions
# Settings: 293T cells, GAL4-TK-Luc reporter; HDAC9, HDAC9ΔCD and HDAC9CD fusions
# Method: GAL4-Tk-Luc was transiently transfected into 293T cells together with 100 ng GAL4 DBD fusions. All Results were performed in duplicate […].
# It has been previously established that HDACs repress transcription when tethered to DNA as Gal4 fusion proteins. […] A GAL4^uasx5-TK-Luciferase reporter gene was transiently transfected into 293T cells together with the expression vectors for the indicated GAL4 fusion proteins.
substance,measurement,value
Trichostatin A,effect on the repressive effects of GAL4 DBD-HDAC9 fusions (reporter activity),partially relieved
